Source: the NIST ThermoML archive (doi:10.1016/j.jct.2017.08.032)
± gives the expanded uncertainty stated by the source.

[1] = 283.15 K; 101.33 kPa; Liquid; Falling or rolling sphere viscometry
[2] = 283.15 K; 101.33 kPa; Liquid; Vibrating tube method
[3] = 293.15 K; 101.33 kPa; Liquid; Falling or rolling sphere viscometry
[4] = 293.15 K; 101.33 kPa; Liquid; Vibrating tube method
[5] = 303.15 K; 101.33 kPa; Liquid; Falling or rolling sphere viscometry
[6] = 303.15 K; 101.33 kPa; Liquid; Vibrating tube method
[7] = 313.15 K; 101.33 kPa; Liquid; Falling or rolling sphere viscometry
[8] = 313.15 K; 101.33 kPa; Liquid; Vibrating tube method
[9] = 323.15 K; 101.33 kPa; Liquid; Falling or rolling sphere viscometry
[10] = 323.15 K; 101.33 kPa; Liquid; Vibrating tube method
[11] = 333.15 K; 101.33 kPa; Liquid; Falling or rolling sphere viscometry
[12] = 333.15 K; 101.33 kPa; Liquid; Vibrating tube method
[13] = 343.15 K; 101.33 kPa; Liquid; Falling or rolling sphere viscometry
[14] = 343.15 K; 101.33 kPa; Liquid; Vibrating tube method
[15] = 353.15 K; 101.33 kPa; Liquid; Falling or rolling sphere viscometry
[16] = 353.15 K; 101.33 kPa; Liquid; Vibrating tube method
[17] = 363.15 K; 101.33 kPa; Liquid; Falling or rolling sphere viscometry
[18] = 363.15 K; 101.33 kPa; Liquid; Vibrating tube method
[19] = 313.15 K; 101.33 kPa; Falling or rolling sphere viscometry; Liquid
[20] = 313.15 K; 101.33 kPa; Vibrating tube method; Liquid
[21] = 323.15 K; 101.33 kPa; Falling or rolling sphere viscometry; Liquid
[22] = 323.15 K; 101.33 kPa; Vibrating tube method; Liquid
[23] = 333.15 K; 101.33 kPa; Falling or rolling sphere viscometry; Liquid
[24] = 333.15 K; 101.33 kPa; Vibrating tube method; Liquid
[25] = 343.15 K; 101.33 kPa; Falling or rolling sphere viscometry; Liquid
[26] = 343.15 K; 101.33 kPa; Vibrating tube method; Liquid
[27] = 353.15 K; 101.33 kPa; Falling or rolling sphere viscometry; Liquid
[28] = 353.15 K; 101.33 kPa; Vibrating tube method; Liquid
[29] = 363.15 K; 101.33 kPa; Falling or rolling sphere viscometry; Liquid
[30] = 363.15 K; 101.33 kPa; Vibrating tube method; Liquid

| Compound | viscosity [1] | mass density [2] | viscosity [3] | mass density [4] | viscosity [5] | mass density [6] | viscosity [7] | mass density [8] | viscosity [9] | mass density [10] | viscosity [11] | mass density [12] | viscosity [13] | mass density [14] | viscosity [15] | mass density [16] | viscosity [17] | mass density [18] | also measured |
| --- | --- | --- | --- | --- | --- | --- | --- | --- | --- | --- | --- | --- | --- | --- | --- | --- | --- | --- | --- |
| CCCC[n+]1ccn(C)c1.O=S(=O)([N-]S(=O)(=O)C(F)(F)F)C(F)(F)F | 88.06 ± 3.9 mPa·s | 1448 ± 10 kg/m3 | 54.17 ± 2.2 mPa·s | 1438 ± 10 kg/m3 | 35.88 ± 1.5 mPa·s | 1428 ± 10 kg/m3 | 25.32 ± 1 mPa·s | 1418 ± 10 kg/m3 | 18.69 ± 0.77 mPa·s | 1408 ± 10 kg/m3 | 14.34 ± 0.59 mPa·s | 1399 ± 10 kg/m3 | 11.22 ± 0.46 mPa·s | 1390 ± 10 kg/m3 | 8.99 ± 0.37 mPa·s | 1379 ± 10 kg/m3 | 7.38 ± 0.3 mPa·s | 1370 ± 10 kg/m3 |  |
| CCC[N+]1(C)CCCCC1.O=S(=O)([N-]S(=O)(=O)C(F)(F)F)C(F)(F)F |  |  |  |  |  |  |  |  |  |  |  |  |  |  |  |  |  |  | viscosity (283.15 K; 101.33 kPa; Metastable liquid; Falling or rolling sphere viscometry): 350.3 ± 25 mPa·s; mass density (283.15 K; 101.33 kPa; Metastable liquid; Vibrating tube method): 1422 ± 10 kg/m3; viscosity (293.15 K; 101.33 kPa; Falling or rolling sphere viscometry; Liquid): 174.4 ± 9.8 mPa·s; mass density (293.15 K; 101.33 kPa; Vibrating tube method; Liquid): 1413 ± 10 kg/m3; viscosity (303.15 K; 101.33 kPa; Falling or rolling sphere viscometry; Liquid): 99.68 ± 4.6 mPa·s; mass density (303.15 K; 101.33 kPa; Vibrating tube method; Liquid): 1404 ± 10 kg/m3; viscosity [19]: 62.11 ± 2.6 mPa·s; mass density [20]: 1395 ± 10 kg/m3; viscosity [21]: 40.78 ± 1.7 mPa·s; mass density [22]: 1386 ± 10 kg/m3; viscosity [23]: 29.14 ± 1.2 mPa·s; mass density [24]: 1379 ± 10 kg/m3; viscosity [25]: 21.36 ± 0.88 mPa·s; mass density [26]: 1371 ± 10 kg/m3; viscosity [27]: 16.25 ± 0.67 mPa·s; mass density [28]: 1363 ± 10 kg/m3; viscosity [29]: 12.75 ± 0.52 mPa·s; mass density [30]: 1353 ± 10 kg/m3 |
| CCn1cc[n+](C)c1.O=S(=O)([N-]S(=O)(=O)C(F)(F)F)C(F)(F)F | 56.17 ± 2.3 mPa·s | 1531 ± 10 kg/m3 | 37.23 ± 1.5 mPa·s | 1521 ± 10 kg/m3 | 26.55 ± 1.1 mPa·s | 1510 ± 10 kg/m3 | 19.6 ± 0.8 mPa·s | 1500 ± 10 kg/m3 | 15.01 ± 0.62 mPa·s | 1491 ± 10 kg/m3 | 11.84 ± 0.49 mPa·s | 1483 ± 10 kg/m3 | 9.57 ± 0.39 mPa·s | 1474 ± 10 kg/m3 | 7.9 ± 0.32 mPa·s | 1465 ± 10 kg/m3 | 6.65 ± 0.27 mPa·s | 1455 ± 10 kg/m3 |  |
| CCCCn1cc[n+](C)c1.CCOS(=O)(=O)[O-] [1-butyl-3-methyl-1H-imidazolium ethyl sulfate] | 672.1 ± 60 mPa·s | 1193 ± 10 kg/m3 | 334 ± 24 mPa·s | 1186 ± 10 kg/m3 | 181 ± 10 mPa·s | 1180 ± 10 kg/m3 | 110.3 ± 5.2 mPa·s | 1173 ± 10 kg/m3 | 70.37 ± 2.9 mPa·s | 1166 ± 10 kg/m3 | 47.41 ± 1.9 mPa·s | 1160 ± 10 kg/m3 | 33.67 ± 1.4 mPa·s | 1153 ± 10 kg/m3 | 24.88 ± 1 mPa·s | 1146 ± 10 kg/m3 | 19.11 ± 0.78 mPa·s | 1139 ± 10 kg/m3 |  |
| CCCCn1cc[n+](C)c1.F[P-](F)(F)(F)(F)F [1-butyl-3-methylimidazolium hexafluorophosphate] | 779.5 ± 73 mPa·s | 1380 ± 10 kg/m3 | 345.1 ± 25 mPa·s | 1372 ± 10 kg/m3 | 185.1 ± 11 mPa·s | 1363 ± 10 kg/m3 | 109.6 ± 5.2 mPa·s | 1354 ± 10 kg/m3 | 69.7 ± 2.9 mPa·s | 1346 ± 10 kg/m3 | 46.59 ± 1.9 mPa·s | 1339 ± 10 kg/m3 | 32.67 ± 1.3 mPa·s | 1332 ± 10 kg/m3 | 23.85 ± 0.98 mPa·s | 1323 ± 10 kg/m3 | 18.03 ± 0.74 mPa·s | 1314 ± 10 kg/m3 |  |
| CCCCn1cc[n+](C)c1.O=S(=O)([O-])C(F)(F)F [1-butyl-3-methylimidazolium trifluoromethanesulfonate] | 183.3 ± 10 mPa·s | 1309 ± 10 kg/m3 | 106.5 ± 5 mPa·s | 1301 ± 10 kg/m3 | 66.58 ± 2.8 mPa·s | 1293 ± 10 kg/m3 | 44.45 ± 1.8 mPa·s | 1285 ± 10 kg/m3 | 31.17 ± 1.3 mPa·s | 1277 ± 10 kg/m3 | 22.81 ± 0.94 mPa·s | 1270 ± 10 kg/m3 | 17.24 ± 0.71 mPa·s | 1262 ± 10 kg/m3 | 13.48 ± 0.55 mPa·s | 1254 ± 10 kg/m3 | 10.73 ± 0.44 mPa·s | 1247 ± 10 kg/m3 |  |
| C[N+](C)(C)CCO.O=S(=O)([N-]S(=O)(=O)C(F)(F)F)C(F)(F)F [choline bis(trifluoromethylsulfonyl)imide] |  |  |  |  |  |  |  |  |  |  |  |  |  |  |  |  |  |  | viscosity (293.15 K; 101.33 kPa; Metastable liquid; Falling or rolling sphere viscometry): 187.9 ± 11 mPa·s; mass density (293.15 K; 101.33 kPa; Metastable liquid; Vibrating tube method): 1539 ± 10 kg/m3; viscosity (303.15 K; 101.33 kPa; Metastable liquid; Falling or rolling sphere viscometry): 111.5 ± 5.3 mPa·s; mass density (303.15 K; 101.33 kPa; Metastable liquid; Vibrating tube method): 1530 ± 10 kg/m3; viscosity [19]: 71.05 ± 3 mPa·s; mass density [20]: 1520 ± 10 kg/m3; viscosity [21]: 47.94 ± 2 mPa·s; mass density [22]: 1511 ± 10 kg/m3; viscosity [23]: 34.09 ± 1.4 mPa·s; mass density [24]: 1504 ± 10 kg/m3; viscosity [25]: 25.6 ± 1.1 mPa·s; mass density [26]: 1495 ± 10 kg/m3; viscosity [27]: 19.61 ± 0.8 mPa·s; mass density [28]: 1486 ± 10 kg/m3; viscosity [29]: 15.43 ± 0.63 mPa·s; mass density [30]: 1476 ± 10 kg/m3 |
